# Test results published in patent publication US10827969B2, “Breath test device and method” (EXALENZ BIOSCIENCE LTD., priority 2005, dated 2020).
# Key:
# [1] = Conditions for dissolving methacetin: dissolving time; format: physicochemical; conditions: room temperature (approximately 25° C.)
# Procedure: It was evaluated whether the thermal cycle for dissolving the API (active pharmaceutical ingredient, such as methacetin) can be eliminated from or at least lowered in the process. Cold vortexing, as well as the assistance of excipients acceptable by the international pharmaceutical regulations and capable of assisting in improving the dissolution of the API, were utilized.
# Experimentation trials were performed, in order to eliminate the heating stage while dissolving the API (methacetin) in purified water.
# Therefore, alternative directions for improving the API dissolution were tried. Solvents capable of dissolving the API and approvable for utilization in pharmaceutical preparations were utilized for this task.
# 30% by volume of the purified water of the preparation was replaced by the alternative solvent. The dissolving time of each preparation was recorded.
# Therefore, a gradient of temperature was utilized to completely dissolve the methacetin in the preparation. An in-process control testing was applied at this stage. A UV specific absorbance analytical method, without further manipulation of the sample, was utilized for confirming that the solid has been completely dissolved in the preparation.
# [2] = Two weeks stability of methacetin formulations (HPLC assay, appearance); format: physicochemical; conditions: 37-38 mg/100 mL methanol, room temperature, at least one week
# Procedure: In the first three items, formulations containing 75 mg methacetin/200 mL solvent were prepared: 2-1. Formulation-1: 76.04 mg methacetin; 62.94 mg SLS; water to final volume of 200 mL. 2-2. Formulation-2: 75.87 mg methacetin; 4 mL PPG-400; water to final volume of 200 mL. 2-3. Formulation-3: 76.66 mg methacetin; 4 mL tween-80; water to final volume of 200 mL. The first three formulated solutions were stored at room temperature protected from light. The fourth solution was stored in an incubator for 3 months at 40° C. On each testing interval, the formulated samples were analyzed according to the following method: [table] The samples were diluted to a concentration of about 37 ppm (37 mg in 1000 ml) and analyzed against a standard solution at the same concentration. The standard was provided by the sponsor (Adrich 428264 batch: UI 2335). Purity of 100% was used in calculations. The methacetin sample that was used for the formulations was also used as a standard for the HPLC determination. […] The stock solution was diluted ×10 in mobile phase solution before the HPLC analysis. The assay was conducted according to Analyst SOP No. 05-001-03, and the HPLC method that was provided by the sponsor.
# [3] = Decomposition of methacetin on heating in solution; format: physicochemical; conditions: heating at 80° C. for three hours
# Procedure: There is thus provided, according to some embodiments, a method of controlled dissolution of methacetin. Methacetin seems to be stable after short term warming to <80° C. in solution. […] Therefore, according to an embodiment of the invention, a solution of methacetin may be prepared by dissolution in warm water.
# [4] = as known in the art; cited from earlier work
# [5] = set-up: species or system subject; conditions: in vivo
# Text: One of the most common methods for determining the rate of metabolism of methacetin is to analyze the rate of metabolism of the methoxy group (CH3O) of methacetin to carbon dioxide, which is excreted in exhaled breath. To distinguish the carbon dioxide derived from methacetin from all other sources of carbon dioxide, the methoxy group is labeled with ^13C, a stable isotope of carbon. Thus, all the CO2 derived from methacetin will contain ^13C (^13CO2) in contrast to all other sources of CO2, which will contain approximately 99%^12C, and 1% ^13C, the naturally abundant isotope. Thus, the rate of excretion of ^13CO2 (normalized to ^12CO2) above background following the administration of methacetin-methoxy-^13C indicates its rate of metabolism, which relates to the hepatic cell “health” and to the functional mass of the liver.
# The curve depicts the rate of metabolism of ^13C-Methacetin in % dose/hour as measured in breath. The peak of the curve (marked by the arrow) appears after 0.4 h (hours). The PDR peak height is approximately at 23.5% dose/hour.
# The following are two examples that illustrate this phenomenon. […]
dissolution in water [1],stability of methacetin stock solution [2],methacetin decomposed [3],PDR peak height [5],time of appearance of the PDR peak [5],SMILES,hepatic extraction ratio [4]
does not dissolve well,stable,0.018%,,,"COc1ccc(NC(C)=O)cc1 [methacetin, N-(4-Methoxyphenyl)acetamide]",more than 0.8
,,,~23.5 % dose/hour,0.4 h,"CC(=O)Nc1ccc(O[13CH3])cc1 [^13C-Methacetin, methacetin-methoxy-^13C]",
